Reference: patent publication US20150342961A1, “USE OF PROSTAGLANDIN E1 (PGE1) AND MISOPROSTOL FOR TREATING CHRONIC MYELOGENOUS/MYELOID LEUKEMIA (CML)” (priority 2014, published 2015)
Entries after “also recorded” stand apart in the source; their conditions may differ. Counter-ions that a name gives are not always drawn.

Key:
[1] = tested on: CML mouse model; test: CML mouse model, survival of primary recipients after BMT; format: in vivo; conditions: for survival rate at about day 35 / time mice survived after bone marrow transplantation (BMT) before survival declined: 2.5 mg/kg daily, days 8-36 post-BMT
Experimental: Bone marrow cells (BM) were isolated from donor mice, and HSCs were enriched and delivered the BCR-ABL gene using retroviral transduction. The BM cells were then transplanted into another group of recipient mice (called primary recipients here). The recipients will develop CML because the donor HSCs are transformed by BCR-ABL. On day 8 after BM transplantation (BMT), the primary recipients were treated with DMSO (the solvent to dissolve PGE1 or PGE2), PGE1, PGE2, Imatinib or both PGE1 and Imatinib. The survival of the recipients was monitored.
CML was established as in FIG. 5. During days 8-36 post-bone marrow transplantation (BMT), the recipients were treated daily with 2.5 mg/kg body weight PGE1 or PGE2, or the vehicle DMSO. Statistical significance was determined by log-rank test. Data are pooled results from 2 independent experiments with a total of 10 CML recipients tested under each condition.
CML was established as in FIG. 5. During days 8-80 post-BMT, the recipients were treated daily with Imatinib alone (100 mg/kg body weight, b.i.d.) or in combination with PGE1 (2.5 mg/kg body weight). Statistical significance was determined by log-rank test. Data are pooled results from 2 independent experiments with a total of 9-10 CML recipients tested under each condition.
(§1) CML animals were treated with the solvent dimethyl sulfoxide (DMSO) as a negative control (See FIG. 6).

[2] = tested on: LSCs; test: Screen of drugs simulating Tcf1 and Lef1 elimination, effect on LSCs
From the text: (§2) In view of the Inventor's discovery, the Inventor set out to screen for drugs that would simulate the effect of eliminating Tcf1 and Lef1 for use in treatment of CML. Inventor experimented with the following drugs which are known to at least partly simulate the effect of eliminating Tcf1 and Lef1: Carbimazole, Cinchonine, Gibberellic acid, Hippeastrine hydrobromide, Dimaprit dihydrochloride, Spaglumic acid, and Vigabatrin. […] Inventor further experimented with Trichostatin A and Vorinostat. […] Inventor thereafter turned to prostaglandins for treating CML.

[3] = tested on: CML; test: Screen of drugs simulating Tcf1 and Lef1 elimination, effect on CML
From the text: as §2

[4] = tested on: LSCs; test: LSCs from treated primary recipients transplanted into secondary recipients, propagation of CML; format: in vivo, mouse; conditions: secondary recipients untreated
Experimental: The CML model was established in the primary recipients as in FIG. 5. The recipients were then treated with Imatinib, PGE1 or Misoprostol alone, or in combination during days 8-21 post-BMT. The LSCs were isolated from the BM of the primary recipients and transplanted into another set of secondary recipients. The ability of LSCs to propagate CML in the secondary recipients were tracked.
Note that the LSCs were only treated with PGE1 or Misoprostol in the primary recipients for 2 weeks, and none of the secondary recipients were treated.
as §1

[5] = tested on: HSCs
From the text: as §2

## CCCCC[C@H](O)/C=C/[C@H]1[C@H](O)CC(=O)[C@@H]1C/C=C\CCCC(=O)O [PGE2, Prostaglandin E2]
[1]; CML mice
  survival rate at about day 35: about 10%
  time mice survived after bone marrow transplantation (BMT) before survival declined: approximately 17 days

## CC(/C=C/C(=O)NO)=C\[C@@H](C)C(=O)c1ccc(N(C)C)cc1 [Trichostatin A]
[2]
  effect on LSCs: strong effect on LSCs

## C=CC(N)CCC(=O)O (stereo not drawn) [Vigabatrin]
[3]
  effect on CML: no effect on CML

## CCCCC[C@H](O)/C=C/[C@H]1[C@H](O)CC(=O)[C@@H]1CCCCCCC(=O)O [PGE1, Prostaglandin E1]
[4]; two-week treatment in primary recipients
  ability of treated LSCs to propagate CML in secondary recipients: superior to Imatinib treatment; also recorded: much less efficient in propagating CML
[1]; CML mice
  survival rate at about day 35: ~50%
  time mice survived after bone marrow transplantation (BMT) before survival declined: approximately 17 days
[1]; CML mice, about day 35
  greater survival rate compared to the PGE2 mice: ~400%

## CCOC(=O)n1ccn(C)c1=S [Carbimazole]
[3]
  effect on CML: no effect on CML

## Cc1ccc(NC(=O)c2ccc(CN3CCN(C)CC3)cc2)cc1Nc1nccc(-c2cccnc2)n1 [Imatinib]
[4]; LSCs treated in primary recipients days 8-21 post-BMT
  day after secondary BMT at which secondary recipients died: ~40 days
[1]; Imatinib 100 mg/kg b.i.d. alone or with PGE1 2.5 mg/kg, days 8-80 post-BMT
  effect of Imatinib or co-therapy on survival of CML recipients: substantially extend the survival; also recorded: extended the survival of CML mice
[1]; Imatinib 100 mg/kg b.i.d., days 8-80 post-BMT
  day after BMT at which all CML mice had died: ~62 days

## C=C[C@H]1C[N@@]2CC[C@H]1C[C@@H]2[C@@H](O)c1ccnc2ccccc12 [Cinchonine]
[3]
  effect on CML: no effect on CML

## C=C1C[C@]23C[C@@]1(O)CC[C@H]2[C@@]12C=C[C@H](O)[C@@](C)(C(=O)O1)[C@H]2[C@@H]3C(=O)O [Gibberellic acid]
[3]
  effect on CML: no effect on CML

## CN(C)CCCSC(=N)N [Dimaprit dihydrochloride]
[3]
  effect on CML: no effect on CML

## CN1CCC2=C[C@H](O)[C@H]3OC(=O)c4cc5c(cc4[C@H]3[C@@H]21)OCO5 [Hippeastrine hydrobromide]
[3]
  effect on CML: no effect on CML

## O=C(CCCCCCC(=O)Nc1ccccc1)NO [Vorinostat]
[5]
  toxicity to HSCs: toxic to HSCs
[2]
  effect on LSCs: strong effect on LSCs
